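Five compound concentrations were applied to cells in 96-well plates for 48 hours; endpoints were derived by simple linear interpolation of the resulting dose-response curve. The concentration for 50% growth inhibition is given as GI50. Definition used: TGI = concentration required for complete inhibition of growth.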
Columns and labels:
Experiment in all cases: NCI tumour cell line growth inhibition, 48 h
HT29 colon = system: HT29 colon
SK-MEL-5 melanoma = system: SK-MEL-5 melanoma
K-562 leukemia = system: K-562 leukemia
DU-145 prostate = system: DU-145 prostate
EKVX NSCLC = system: EKVX NSCLC
T-47D breast = system: T-47D breast
PC-3 prostate = system: PC-3 prostate
MALME-3M melanoma = system: MALME-3M melanoma
TK-10 renal = system: TK-10 renal
IGROV1 ovarian = system: IGROV1 ovarian
KM12 colon = system: KM12 colon
MOLT-4 leukemia = system: MOLT-4 leukemia
RPMI-8226 leukemia = system: RPMI-8226 leukemia
A498 renal = system: A498 renal
COLO 205 colon = system: COLO 205 colon
SNB-75 CNS = system: SNB-75 CNS
RXF 393 renal = system: RXF 393 renal
786-0 renal = system: 786-0 renal
NCI-H23 lung = system: NCI-H23 lung
OVCAR-5 ovarian = system: OVCAR-5 ovarian
BT-549 breast = system: BT-549 breast
ACHN renal = system: ACHN renal
SK-MEL-28 melanoma = system: SK-MEL-28 melanoma
LOX IMVI melanoma = system: LOX IMVI melanoma
UO-31 renal = system: UO-31 renal
NCI-H226 lung = system: NCI-H226 lung
SNB-19 CNS = system: SNB-19 CNS
NCI-H522 lung = system: NCI-H522 lung
CAKI-1 renal = system: CAKI-1 renal
HCT-116 colon = system: HCT-116 colon
SF-539 CNS = system: SF-539 CNS
SK-MEL-2 melanoma = system: SK-MEL-2 melanoma
SW-620 colon = system: SW-620 colon
HL-60(TB) leukemia = system: HL-60(TB) leukemia
M14 melanoma = system: M14 melanoma
SF-295 CNS = system: SF-295 CNS
MCF7 breast = system: MCF7 breast
U251 CNS = system: U251 CNS
UACC-62 melanoma = system: UACC-62 melanoma
MDA-MB-231 breast = system: MDA-MB-231 breast
OVCAR-4 ovarian = system: OVCAR-4 ovarian
OVCAR-8 ovarian = system: OVCAR-8 ovarian
A549 NSCLC = system: A549 NSCLC
MDA-MB-435 = system: MDA-MB-435
HOP-92 NSCLC = system: HOP-92 NSCLC
UACC-257 melanoma = system: UACC-257 melanoma
HCC-2998 colon = system: HCC-2998 colon
SK-OV-3 ovarian = system: SK-OV-3 ovarian
CCRF-CEM leukemia = system: CCRF-CEM leukemia
HOP-62 NSCLC = system: HOP-62 NSCLC
MDA-MB-468 breast = system: MDA-MB-468 breast
NCI-H460 lung = system: NCI-H460 lung
HS 578T breast = system: HS 578T breast
HCT-15 colon = system: HCT-15 colon
OVCAR-3 ovarian = system: OVCAR-3 ovarian
NCI/ADR-RES ovarian = system: NCI/ADR-RES ovarian
SF-268 CNS = system: SF-268 CNS
SN12C renal = system: SN12C renal

Work on `C=C1CCC2C3(C)COC(c4ccco4)OC3CCC2(C)C1CC(Sc1ccccc1)C1=CCOC1=O` (stereo unspecified) yielded a GI50 (HT29 colon) of 4.26 µM, a TGI (HT29 colon) of 26.1 µM and a GI50 (SK-MEL-5 melanoma) of 10.8 µM. The TGI (SK-MEL-5 melanoma) was 22.9 µM, the GI50 (K-562 leukemia) was 3.62 µM and the TGI (K-562 leukemia) was > 100 µM. For the same compound, the GI50 (DU-145 prostate) was 9.01 µM, the TGI (DU-145 prostate) was 73.6 µM and the GI50 (EKVX NSCLC) was 11 µM. For the same compound, the TGI (EKVX NSCLC) was > 100 µM, the GI50 (T-47D breast) was 14.4 µM and the TGI (T-47D breast) was > 100 µM. The GI50 (PC-3 prostate) was 6.71 µM, the TGI (PC-3 prostate) was > 100 µM and the GI50 (MALME-3M melanoma) was 35.6 µM. The TGI (MALME-3M melanoma) was > 100 µM, the GI50 (TK-10 renal) was 97.7 µM and the TGI (TK-10 renal) was > 100 µM. The GI50 (IGROV1 ovarian) was 17.8 µM, the TGI (IGROV1 ovarian) was > 100 µM and the GI50 (KM12 colon) was 12.1 µM. The TGI (KM12 colon) was > 100 µM, the GI50 (MOLT-4 leukemia) was 4.41 µM and the TGI (MOLT-4 leukemia) was > 100 µM. The GI50 (RPMI-8226 leukemia) was 2.36 µM, the TGI (RPMI-8226 leukemia) was 8.23 µM and the GI50 (A498 renal) was > 100 µM. For the same compound, the TGI (A498 renal) was > 100 µM, the GI50 (COLO 205 colon) was 24.4 µM and the TGI (COLO 205 colon) was > 100 µM. For the same compound, the GI50 (SNB-75 CNS) was 8.98 µM, the TGI (SNB-75 CNS) was > 100 µM and the GI50 (RXF 393 renal) was 8.05 µM. It also gave a TGI (RXF 393 renal) of 49.1 µM, a GI50 (786-0 renal) of 14.3 µM and a TGI (786-0 renal) of 34.1 µM. The GI50 (NCI-H23 lung) was 21.5 µM, the TGI (NCI-H23 lung) was 88.9 µM and the GI50 (OVCAR-5 ovarian) was 21.7 µM. For the same compound, the TGI (OVCAR-5 ovarian) was 91 µM, the GI50 (BT-549 breast) was 3.97 µM and the TGI (BT-549 breast) was 16.9 µM. For the same compound, the GI50 (ACHN renal) was 14.1 µM, the TGI (ACHN renal) was > 100 µM and the GI50 (SK-MEL-28 melanoma) was 28.5 µM. For the same compound, the TGI (SK-MEL-28 melanoma) was > 100 µM, the GI50 (LOX IMVI melanoma) was 1.81 µM and the TGI (LOX IMVI melanoma) was 4 µM. For the same compound, the GI50 (UO-31 renal) was 13.4 µM, the TGI (UO-31 renal) was > 100 µM and the GI50 (NCI-H226 lung) was 6.22 µM. The TGI (NCI-H226 lung) was 62.6 µM, the GI50 (SNB-19 CNS) was 42.3 µM and the TGI (SNB-19 CNS) was > 100 µM. The GI50 (NCI-H522 lung) was 7.51 µM, the TGI (NCI-H522 lung) was 20.4 µM and the GI50 (CAKI-1 renal) was 18.4 µM. For the same compound, the TGI (CAKI-1 renal) was > 100 µM, the GI50 (HCT-116 colon) was 4.39 µM and the TGI (HCT-116 colon) was 17.9 µM. For the same compound, the GI50 (SF-539 CNS) was 4.12 µM, the TGI (SF-539 CNS) was 15.6 µM and the GI50 (SK-MEL-2 melanoma) was 7.3 µM. For the same compound, the TGI (SK-MEL-2 melanoma) was 22 µM, the GI50 (SW-620 colon) was 3.43 µM and the TGI (SW-620 colon) was 15 µM. For the same compound, the GI50 (HL-60(TB) leukemia) was 2.82 µM, the TGI (HL-60(TB) leukemia) was 36.4 µM and the GI50 (M14 melanoma) was 15.7 µM. The TGI (M14 melanoma) was 69.2 µM, the GI50 (SF-295 CNS) was 25.7 µM and the TGI (SF-295 CNS) was > 100 µM. The GI50 (MCF7 breast) was 3.75 µM, the TGI (MCF7 breast) was 41 µM and the GI50 (U251 CNS) was 5.88 µM. It also gave a TGI (U251 CNS) of 20.3 µM, a GI50 (UACC-62 melanoma) of 12.4 µM and a TGI (UACC-62 melanoma) of 31.8 µM. It also gave a GI50 (MDA-MB-231 breast) of 14.3 µM, a TGI (MDA-MB-231 breast) of 53.2 µM and a GI50 (OVCAR-4 ovarian) of 14.7 µM. The TGI (OVCAR-4 ovarian) was > 100 µM, the GI50 (OVCAR-8 ovarian) was 3.05 µM and the TGI (OVCAR-8 ovarian) was 14.3 µM. For the same compound, the GI50 (A549 NSCLC) was 18.7 µM, the TGI (A549 NSCLC) was > 100 µM and the GI50 (MDA-MB-435) was 8.94 µM. For the same compound, the TGI (MDA-MB-435) was > 100 µM, the GI50 (HOP-92 NSCLC) was 16.5 µM and the TGI (HOP-92 NSCLC) was > 100 µM. For the same compound, the GI50 (UACC-257 melanoma) was 21.9 µM, the TGI (UACC-257 melanoma) was > 100 µM and the GI50 (HCC-2998 colon) was 21.1 µM. For the same compound, the TGI (HCC-2998 colon) was > 100 µM, the GI50 (SK-OV-3 ovarian) was 80.1 µM and the TGI (SK-OV-3 ovarian) was > 100 µM. The GI50 (CCRF-CEM leukemia) was 2.12 µM, the TGI (CCRF-CEM leukemia) was > 100 µM and the GI50 (HOP-62 NSCLC) was 23.5 µM. For the same compound, the TGI (HOP-62 NSCLC) was > 100 µM, the GI50 (MDA-MB-468 breast) was 3.8 µM and the TGI (MDA-MB-468 breast) was 16.7 µM. For the same compound, the GI50 (NCI-H460 lung) was 21.7 µM, the TGI (NCI-H460 lung) was > 100 µM and the GI50 (HS 578T breast) was 35.7 µM. The TGI (HS 578T breast) was > 100 µM, the GI50 (HCT-15 colon) was 6.66 µM and the TGI (HCT-15 colon) was 52.9 µM. It also gave a GI50 (OVCAR-3 ovarian) of 3.78 µM, a TGI (OVCAR-3 ovarian) of 12.5 µM and a GI50 (NCI/ADR-RES ovarian) of 2.6 µM. The TGI (NCI/ADR-RES ovarian) was 6.95 µM, the GI50 (SF-268 CNS) was 59.5 µM and the TGI (SF-268 CNS) was > 100 µM. The GI50 (SN12C renal) was 9.46 µM and the TGI (SN12C renal) was > 100 µM.
